Source: PubChem BioAssay AID1982 (Sanford-Burnham Center for Chemical Genomics, 2009)
Calls of active or inactive are those of the source. No rule for the calls is given here.

Experiments:
Assay in all cases: kinase panel binding selectivity, selectivity assay, biochemical, KINOMEscan (AID 1982)
[1] = tested on: ACVRL1; conditions: KINOMEscan 353-kinase binding panel, qPCR, at 10 µM, active compounds read low
[2] = target: ALK tyrosine kinase receptor (Homo sapiens) (UniProt Q9UM73); conditions: KINOMEscan 353-kinase binding panel, qPCR, at 10 µM, active compounds read low
[3] = target: Activated CDC42 kinase 1 (Homo sapiens) (UniProt Q07912); conditions: KINOMEscan 353-kinase binding panel, qPCR; TNK2; at 10 µM; active compounds read low
[4] = tested on: CIT; conditions: KINOMEscan 353-kinase binding panel, qPCR, at 10 µM, active compounds read low
[5] = tested on: CSK; conditions: KINOMEscan 353-kinase binding panel, qPCR, at 10 µM, active compounds read low
[6] = target: Casein kinase I isoform delta (Homo sapiens) (UniProt P48730); conditions: KINOMEscan 353-kinase binding panel, qPCR; CSNK1D; at 10 µM; active compounds read low
[7] = tested on: EPHA7; conditions: KINOMEscan 353-kinase binding panel, qPCR, at 10 µM, active compounds read low
[8] = tested on: EPHB3; conditions: KINOMEscan 353-kinase binding panel, qPCR, at 10 µM, active compounds read low
[9] = tested on: FGR; conditions: KINOMEscan 353-kinase binding panel, qPCR, at 10 µM, active compounds read low
[10] = target: Insulin receptor (Homo sapiens) (UniProt P06213); conditions: KINOMEscan 353-kinase binding panel, qPCR; INSR; at 10 µM; active compounds read low
[11] = tested on: JAK1(Kin.Dom.2); conditions: KINOMEscan 353-kinase binding panel, qPCR, at 10 µM, active compounds read low
[12] = tested on: JNK1; conditions: KINOMEscan 353-kinase binding panel, qPCR, at 10 µM, active compounds read low
[13] = target: LIM domain kinase 1 (Homo sapiens) (UniProt P53667); conditions: KINOMEscan 353-kinase binding panel, qPCR; LIMK1; at 10 µM; active compounds read low
Sequence of LIM domain kinase 1 (Homo sapiens) (P53667 whole entry, looked up, the tested form may be a part): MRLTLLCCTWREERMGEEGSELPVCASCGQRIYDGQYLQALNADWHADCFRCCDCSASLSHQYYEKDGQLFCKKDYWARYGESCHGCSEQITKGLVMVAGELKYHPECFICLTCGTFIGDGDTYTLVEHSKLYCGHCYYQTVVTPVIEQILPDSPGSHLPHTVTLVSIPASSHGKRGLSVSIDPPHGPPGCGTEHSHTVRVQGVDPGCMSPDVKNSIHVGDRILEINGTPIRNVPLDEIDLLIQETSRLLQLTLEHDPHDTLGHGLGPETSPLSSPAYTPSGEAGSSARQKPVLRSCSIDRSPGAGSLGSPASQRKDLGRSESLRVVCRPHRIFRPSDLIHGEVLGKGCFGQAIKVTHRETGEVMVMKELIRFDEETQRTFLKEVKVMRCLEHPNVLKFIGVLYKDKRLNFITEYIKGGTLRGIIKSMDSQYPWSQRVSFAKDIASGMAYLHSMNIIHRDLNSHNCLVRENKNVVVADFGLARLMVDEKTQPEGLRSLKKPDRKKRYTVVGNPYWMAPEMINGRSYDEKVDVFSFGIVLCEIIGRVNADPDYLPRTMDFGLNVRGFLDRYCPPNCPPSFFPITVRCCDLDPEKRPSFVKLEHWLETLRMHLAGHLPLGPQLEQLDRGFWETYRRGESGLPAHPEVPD

[14] = tested on: LKB1; conditions: KINOMEscan 353-kinase binding panel, qPCR, at 10 µM, active compounds read low
[15] = tested on: MAP4K1; conditions: KINOMEscan 353-kinase binding panel, qPCR, at 10 µM, active compounds read low
[16] = tested on: MLCK; conditions: KINOMEscan 353-kinase binding panel, qPCR, at 10 µM, active compounds read low
[17] = tested on: MST1; conditions: KINOMEscan 353-kinase binding panel, qPCR, at 10 µM, active compounds read low
[18] = tested on: MYLK; conditions: KINOMEscan 353-kinase binding panel, qPCR, at 10 µM, active compounds read low
[19] = target: Mast/stem cell growth factor receptor Kit (Homo sapiens) (UniProt P10721); conditions: KINOMEscan 353-kinase binding panel, qPCR, at 10 µM, active compounds read low
Sequence of Mast/stem cell growth factor receptor Kit (Homo sapiens) (P10721 whole entry, looked up): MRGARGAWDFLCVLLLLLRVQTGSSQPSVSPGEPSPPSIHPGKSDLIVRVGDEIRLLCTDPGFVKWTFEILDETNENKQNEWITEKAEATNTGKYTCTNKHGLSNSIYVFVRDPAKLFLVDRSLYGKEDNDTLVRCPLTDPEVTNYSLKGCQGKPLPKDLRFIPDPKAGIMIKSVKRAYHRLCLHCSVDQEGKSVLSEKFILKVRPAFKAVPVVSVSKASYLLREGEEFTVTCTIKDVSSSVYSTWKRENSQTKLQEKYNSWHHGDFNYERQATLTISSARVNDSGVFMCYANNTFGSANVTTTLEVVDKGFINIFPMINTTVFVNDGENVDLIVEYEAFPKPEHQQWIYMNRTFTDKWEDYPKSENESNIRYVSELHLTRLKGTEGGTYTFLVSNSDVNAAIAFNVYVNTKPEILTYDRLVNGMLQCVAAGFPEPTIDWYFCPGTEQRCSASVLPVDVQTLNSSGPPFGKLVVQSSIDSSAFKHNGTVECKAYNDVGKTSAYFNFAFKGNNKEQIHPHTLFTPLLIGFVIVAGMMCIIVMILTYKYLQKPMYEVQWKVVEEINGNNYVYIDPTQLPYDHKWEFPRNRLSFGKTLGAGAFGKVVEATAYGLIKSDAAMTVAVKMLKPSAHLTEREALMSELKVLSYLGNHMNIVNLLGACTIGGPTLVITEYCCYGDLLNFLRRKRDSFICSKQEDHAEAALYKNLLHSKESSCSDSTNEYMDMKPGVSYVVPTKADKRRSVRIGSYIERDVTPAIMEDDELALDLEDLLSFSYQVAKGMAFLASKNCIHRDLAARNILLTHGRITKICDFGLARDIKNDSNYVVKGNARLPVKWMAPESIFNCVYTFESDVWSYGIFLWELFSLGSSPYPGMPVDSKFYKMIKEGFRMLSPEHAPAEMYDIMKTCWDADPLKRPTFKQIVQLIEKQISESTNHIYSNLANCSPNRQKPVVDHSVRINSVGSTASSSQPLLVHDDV

[20] = target: Mitogen-activated protein kinase 12 (Homo sapiens) (UniProt P53778); conditions: KINOMEscan 353-kinase binding panel, qPCR; p38-gamma; at 10 µM; active compounds read low
Sequence of Mitogen-activated protein kinase 12 (Homo sapiens) (P53778 whole entry, looked up): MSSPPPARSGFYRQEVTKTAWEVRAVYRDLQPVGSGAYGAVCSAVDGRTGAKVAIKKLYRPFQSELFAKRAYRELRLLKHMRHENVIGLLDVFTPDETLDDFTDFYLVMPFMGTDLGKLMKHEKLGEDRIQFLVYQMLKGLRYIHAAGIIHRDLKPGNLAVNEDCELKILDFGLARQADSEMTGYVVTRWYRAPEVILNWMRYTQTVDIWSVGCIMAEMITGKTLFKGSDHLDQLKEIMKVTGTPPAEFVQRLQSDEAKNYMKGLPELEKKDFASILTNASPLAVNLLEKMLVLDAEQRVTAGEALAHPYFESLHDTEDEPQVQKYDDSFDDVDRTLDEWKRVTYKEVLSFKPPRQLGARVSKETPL

[21] = target: Mitogen-activated protein kinase 3 (Homo sapiens) (UniProt P27361); conditions: KINOMEscan 353-kinase binding panel, qPCR; ERK1; at 10 µM; active compounds read low
Sequence of Mitogen-activated protein kinase 3 (Homo sapiens) (P27361 whole entry, looked up): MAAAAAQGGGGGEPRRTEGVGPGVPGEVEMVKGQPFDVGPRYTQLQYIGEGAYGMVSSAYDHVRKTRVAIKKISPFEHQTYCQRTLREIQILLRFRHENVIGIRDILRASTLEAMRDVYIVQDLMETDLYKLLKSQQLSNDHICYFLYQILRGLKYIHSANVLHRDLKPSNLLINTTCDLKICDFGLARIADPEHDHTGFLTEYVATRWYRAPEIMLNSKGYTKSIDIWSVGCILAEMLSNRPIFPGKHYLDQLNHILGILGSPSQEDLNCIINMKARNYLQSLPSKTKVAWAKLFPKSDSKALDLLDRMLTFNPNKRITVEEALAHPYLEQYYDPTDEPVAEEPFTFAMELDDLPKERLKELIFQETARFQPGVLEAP

[22] = target: Mitogen-activated protein kinase kinase kinase 20 (Homo sapiens) (UniProt Q9NYL2); conditions: KINOMEscan 353-kinase binding panel, qPCR; ZAK; at 10 µM; active compounds read low
Sequence of Mitogen-activated protein kinase kinase kinase 20 (Homo sapiens) (Q9NYL2 whole entry, looked up): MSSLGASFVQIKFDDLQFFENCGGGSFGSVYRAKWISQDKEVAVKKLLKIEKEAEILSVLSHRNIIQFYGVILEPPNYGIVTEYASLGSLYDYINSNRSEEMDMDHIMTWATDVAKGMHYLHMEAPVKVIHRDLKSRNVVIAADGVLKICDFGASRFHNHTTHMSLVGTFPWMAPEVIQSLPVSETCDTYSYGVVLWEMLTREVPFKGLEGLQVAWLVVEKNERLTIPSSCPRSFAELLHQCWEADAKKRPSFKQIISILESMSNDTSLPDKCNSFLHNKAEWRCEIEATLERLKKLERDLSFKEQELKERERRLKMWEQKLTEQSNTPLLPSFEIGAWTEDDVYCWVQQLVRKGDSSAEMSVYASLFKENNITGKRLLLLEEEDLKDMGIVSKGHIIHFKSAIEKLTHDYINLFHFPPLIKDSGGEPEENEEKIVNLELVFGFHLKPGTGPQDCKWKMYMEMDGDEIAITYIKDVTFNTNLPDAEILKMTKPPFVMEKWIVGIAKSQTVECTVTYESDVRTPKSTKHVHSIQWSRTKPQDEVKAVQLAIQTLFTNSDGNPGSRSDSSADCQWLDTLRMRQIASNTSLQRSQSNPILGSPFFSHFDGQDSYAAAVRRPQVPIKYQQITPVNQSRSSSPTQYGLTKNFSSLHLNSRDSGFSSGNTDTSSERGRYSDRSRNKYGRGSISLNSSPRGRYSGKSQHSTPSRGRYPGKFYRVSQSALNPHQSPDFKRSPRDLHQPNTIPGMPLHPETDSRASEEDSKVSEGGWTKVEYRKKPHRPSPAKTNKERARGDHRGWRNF

[23] = target: Mitogen-activated protein kinase kinase kinase kinase 5 (Homo sapiens) (UniProt Q9Y4K4); conditions: KINOMEscan 353-kinase binding panel, qPCR; MAP4K5; at 10 µM; active compounds read low
[24] = tested on: NEK1; conditions: KINOMEscan 353-kinase binding panel, qPCR, at 10 µM, active compounds read low
[25] = tested on: PIK3C2B; conditions: KINOMEscan 353-kinase binding panel, qPCR, at 10 µM, active compounds read low
[26] = target: Protein kinase C delta type (Homo sapiens) (UniProt Q05655); conditions: KINOMEscan 353-kinase binding panel, qPCR; PRKCD; at 10 µM; active compounds read low
[27] = target: Proto-oncogene tyrosine-protein kinase ROS (Homo sapiens) (UniProt P08922); conditions: KINOMEscan 353-kinase binding panel, qPCR; ROS1; at 10 µM; active compounds read low
[28] = tested on: RIPK1; conditions: KINOMEscan 353-kinase binding panel, qPCR, at 10 µM, active compounds read low
[29] = target: Ribosomal protein S6 kinase alpha-4 (Homo sapiens) (UniProt O75676); conditions: KINOMEscan 353-kinase binding panel, qPCR, at 10 µM, active compounds read low
Sequence of Ribosomal protein S6 kinase alpha-4 (Homo sapiens) (O75676 whole entry, looked up): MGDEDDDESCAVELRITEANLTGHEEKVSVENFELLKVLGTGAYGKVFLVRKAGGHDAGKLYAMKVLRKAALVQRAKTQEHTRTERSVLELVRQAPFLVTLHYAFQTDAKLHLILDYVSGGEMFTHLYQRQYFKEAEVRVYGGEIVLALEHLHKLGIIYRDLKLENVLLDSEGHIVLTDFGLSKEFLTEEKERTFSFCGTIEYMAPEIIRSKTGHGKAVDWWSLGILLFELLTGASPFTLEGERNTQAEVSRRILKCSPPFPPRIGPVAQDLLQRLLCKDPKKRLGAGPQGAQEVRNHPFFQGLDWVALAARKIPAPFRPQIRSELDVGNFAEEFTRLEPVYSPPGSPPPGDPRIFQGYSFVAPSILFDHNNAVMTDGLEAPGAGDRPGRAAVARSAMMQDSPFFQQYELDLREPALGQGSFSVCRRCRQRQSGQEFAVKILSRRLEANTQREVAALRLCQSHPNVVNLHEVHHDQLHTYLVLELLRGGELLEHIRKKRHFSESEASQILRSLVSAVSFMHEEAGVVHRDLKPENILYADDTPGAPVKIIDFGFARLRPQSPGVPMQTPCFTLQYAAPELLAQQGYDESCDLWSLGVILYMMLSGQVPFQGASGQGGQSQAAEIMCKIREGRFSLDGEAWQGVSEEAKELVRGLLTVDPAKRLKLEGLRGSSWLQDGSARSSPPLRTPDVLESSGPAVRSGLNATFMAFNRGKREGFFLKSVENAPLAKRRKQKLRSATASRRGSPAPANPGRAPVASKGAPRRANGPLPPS

[30] = tested on: SNF1LK; conditions: KINOMEscan 353-kinase binding panel, qPCR, at 10 µM, active compounds read low
[31] = target: Serine/threonine-protein kinase D3 (Homo sapiens) (UniProt O94806); conditions: KINOMEscan 353-kinase binding panel, qPCR; PRKD3; at 10 µM; active compounds read low
[32] = target: Serine/threonine-protein kinase PLK4 (Homo sapiens) (UniProt O00444); conditions: KINOMEscan 353-kinase binding panel, qPCR, at 10 µM, active compounds read low
Sequence of Serine/threonine-protein kinase PLK4 (Homo sapiens) (O00444 whole entry, looked up): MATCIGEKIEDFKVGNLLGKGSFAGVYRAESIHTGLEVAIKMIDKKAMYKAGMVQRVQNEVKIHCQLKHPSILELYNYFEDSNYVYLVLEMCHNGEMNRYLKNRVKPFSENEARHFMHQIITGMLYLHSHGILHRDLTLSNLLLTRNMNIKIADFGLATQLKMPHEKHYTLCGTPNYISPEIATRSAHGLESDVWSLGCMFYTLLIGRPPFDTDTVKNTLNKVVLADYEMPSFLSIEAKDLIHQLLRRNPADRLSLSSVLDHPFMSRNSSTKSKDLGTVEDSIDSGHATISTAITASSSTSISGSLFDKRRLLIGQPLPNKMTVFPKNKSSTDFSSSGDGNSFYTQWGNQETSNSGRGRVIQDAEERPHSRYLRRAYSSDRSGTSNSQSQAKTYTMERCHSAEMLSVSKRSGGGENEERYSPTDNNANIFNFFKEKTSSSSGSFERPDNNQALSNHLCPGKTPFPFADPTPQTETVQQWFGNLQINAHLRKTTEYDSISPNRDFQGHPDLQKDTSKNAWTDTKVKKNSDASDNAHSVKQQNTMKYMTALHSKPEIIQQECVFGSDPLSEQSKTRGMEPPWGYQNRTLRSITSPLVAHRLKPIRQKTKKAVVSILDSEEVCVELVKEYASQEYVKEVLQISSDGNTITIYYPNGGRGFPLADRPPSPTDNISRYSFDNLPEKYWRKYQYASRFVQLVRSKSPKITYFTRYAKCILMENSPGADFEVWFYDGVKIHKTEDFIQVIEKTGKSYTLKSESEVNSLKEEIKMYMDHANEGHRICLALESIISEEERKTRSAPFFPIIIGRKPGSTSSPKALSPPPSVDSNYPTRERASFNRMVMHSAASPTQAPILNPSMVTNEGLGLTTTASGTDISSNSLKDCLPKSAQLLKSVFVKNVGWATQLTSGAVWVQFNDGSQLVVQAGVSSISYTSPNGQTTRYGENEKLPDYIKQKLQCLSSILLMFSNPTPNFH

[33] = tested on: TNK1; conditions: KINOMEscan 353-kinase binding panel, qPCR, at 10 µM, active compounds read low
[34] = tested on: ULK1; conditions: KINOMEscan 353-kinase binding panel, qPCR, at 10 µM, active compounds read low
[35] = tested on: p38-delta; conditions: KINOMEscan 353-kinase binding panel, qPCR, at 10 µM, active compounds read low

Measured: percent of control binding

Cc1cc2nc(NCCCO)n(CC(=O)c3cc(C(C)(C)C)c(O)c(C(C)(C)C)c3)c2cc1C
inactive: [1] 100% | [2] 100% | [3] 98% | [4] 100% | [5] 100% | [6] 99% | [7] 87% | [8] 86% | [9] 100% | [10] 94% | [11] 90% | [12] 100% | [13] 95% | [14] 100% | [15] 100% | [16] 91% | [17] 90% | [18] 80% | [19] 92% | [19]; KIT(D816V) 90% | [19]; KIT(V559D) 95% | [19]; KIT(V559D,T670I) 94% | [19]; KIT(V559D,V654A) 92% | [20] 95% | [21] 94% | [22] 93% | [23] 83% | [24] 91% | [25] 90% | [26] 100% | [27] 100% | [28] 100% | [29]; RPS6KA4(Kin.Dom.1) 100% | [29]; RPS6KA4(Kin.Dom.2) 100% | [30] 100% | [31] 100% | [32] 91% | [33] 80% | [34] 100% | [35] 100%
